*: point of attachment. NHNH2 = NN*
Legend:
Assay type in all cases: cell-based
[1] = test system: Hek293 cells; experiment: RLuc pDNA delivery, robotic library screening, Hek293
[2] = test system: ARPE19 cells; experiment: RLuc pDNA delivery, robotic library screening, ARPE19
[3] = test system: A549 cells; experiment: RLuc pDNA delivery, robotic library screening, A549
Procedure: (§1) Cells were seeded in a 96 well plate the day before the experiment at a concentration of 60,000 cell/mL (100 μL/w) in DMEM+10% FBS+1% Gln-Abt. For robotic library screening, the delivery of pDNA encoding for the expression of Renilla luciferase gene (RLuc, pRL-CMV (Promega, #E2261)) in six different cell lines was performed. Amphihilic molecule stock solutions in DMSO were diluted with DMEM and freshly mixed with pDNA stock solutions in DMEM prior to transfection experiments, to afford several complexes at different amphiphile concentration (2-10 μM) while maintaining a constant final pDNA concentration of 2 ng/μL. The mixture was shaken for 30 min at room temperature before the addition to the cells. The cell medium was aspirated, and cells were washed twice with PBS. Finally, 50 μL of the complex's solution were added to the cells and incubated for 4 h. After the incubation, the medium was replaced by 100 μL of fresh DMEM supplemented with 10% FBS. 72 hours after transfection the DMEM was removed, cells were washed once with HBSS and 90 μL of HBSS were added to each well. Cells were incubated at 37° C. for 30 minutes. Then basal luminescence levels were read in a plate reader. Immediately, 10 μL of coelenterazine h in HBSS were added to each well (5 μM final concentration) and cells were incubated at 37° C. for 10 minutes. Finally, the total luminescence measurement of the plates was performed. Amphiphile transfection efficiency was compared and normalized to Lipofectamine® 2000 efficiency (value of 1 in Tables 1-5 and 7; bold numbers). All experiments were done in triplicate.
(§2) Tables 1-7: RLuc (pDNA) or EGFP (mRNA) expression levels were normalized to Lipofectamine reagents (value=1) and expressed as fold-times signal increase. In the case of siRNA, the siRNA treated cells fluorescence was compared with siMOCK control fluorescence, while Cas9-RNP mediated knockout was measured against the fluorescence of untreated cells. In both siRNA and Cas9-RNP, values are expressed as % fluorescence reduction. Amphiphile concentration was 5 μM in all cases. All experiments were performed in triplicate.
(§3) Tables 8-13 show the mean (triplicates) luminescent intensity (RLU) measured after the transfection of RLuc pDNA by different amphiphiles at different concentrations in a variety of cell lines. Background luminescence values, accounted by untransfected control cells, were subtracted for processing.

[4] = test system: Hela cells; experiment: RLuc pDNA delivery, robotic library screening, HeLa; details: Hela
Procedure: as §1, with “Amphihilic molecule stock solutions in DMSO were diluted with DMEM and freshly mixed with pDNA stock solutions in DMEM prior to transfection experiments, to afford several complexes at different amphiphile concentration (2-10 μM) while maintaining a constant final pDNA concentration of 2 ng/μL.” left out
as §2, §3

[5] = test system: HepG2 cells; experiment: RLuc pDNA delivery, robotic library screening, HepG2
Procedure: as §1, §2, §3

[6] = test system: HCT116 cells; experiment: RLuc pDNA delivery, robotic library screening, HCT116
[7] = test system: HepG2 cells; experiment: EGFP mRNA delivery, robotic library screening, HepG2; details: HepG2 cells
Procedure: Cells were seeded in a 96 well plate the day before the experiment at a concentration of 50,000 cell/mL (100 μL/w) in DMEM+10% FBS+1% Gln-Abt. For robotic library screening, the delivery of EGFP-mRNA (from TriLink, fully substituted with 5-methoxyuridine, capped and polyadenylated; TriLink, CleanCap® EGFP mRNA (5moU), ref. L-7201) in six different cell lines was performed. Amphiphilic molecule stock solutions were prepared in DMSO as described above and diluted in DMEM to afford a range of concentrations. The solutions of EGFP-mRNA/amphiphilic molecule complexes were freshly prepared prior to the transfection experiments. 35 μL of the corresponding amphiphile were added to 10 μL of a solution of EGFP-mRNA at 10 ng/μL in DMEM. The mixture was shaken for 30 min at room temperature before the addition to the cells. The cell medium was aspirated, and cells were washed with PBS twice. […] After the incubation, the medium was replaced by 100 μL of fresh DMEM supplemented with 10% FBS. The total EGFP fluorescence was quantified after 72 h in a well plate reader. Amphiphile transfection efficiency was compared and normalized to Lipofectamine® MessengerMax efficiency (value of 1 in Tables 1-5 and 7; double underlined numbers). All experiments were done in triplicate.
as §2
Tables 14-19 show the mean (triplicates) fluorescence intensity measured after the transfection of EGFP mRNA by different amphiphiles at different concentrations in a variety of cell lines. Background fluorescence values, accounted by untreated control cells, were subtracted for processing.

Substance | mean luminescent intensity (RLuc pDNA) ([1]; Dodecanal, 5 μM) [RLU] | mean luminescent intensity (RLuc pDNA) ([1]; Palmitoleyl, 10 μM) [RLU] | mean luminescent intensity (RLuc pDNA) ([1]; Petroselinyl, 5 μM) [RLU] | mean luminescent intensity (RLuc pDNA) ([1]; Petroselinyl, 10 μM) [RLU] | mean luminescent intensity (RLuc pDNA) ([2]; Dodecanal, 5 μM) [RLU] | mean luminescent intensity (RLuc pDNA) ([2]; Myristoleyl, 5 μM) [RLU] | mean luminescent intensity (RLuc pDNA) ([2]; Myristoleyl, 10 μM) [RLU] | mean luminescent intensity (RLuc pDNA) ([2]; Myristoleyl, 15 μM) [RLU] | mean luminescent intensity (RLuc pDNA) ([2]; Petroselinyl, 5 μM) [RLU] | mean luminescent intensity (RLuc pDNA) ([3]; Oleyl, 5 μM) [RLU] | mean luminescent intensity (RLuc pDNA) ([4]; Myristoleyl, 5 μM) [RLU] | mean luminescent intensity (RLuc pDNA) ([4]; Myristoleyl, 10 μM) [RLU] | mean luminescent intensity (RLuc pDNA) ([4]; Myristoleyl, 15 μM) [RLU] | mean luminescent intensity (RLuc pDNA) ([5]; Oleyl, 5 μM) [RLU] | mean luminescent intensity (RLuc pDNA) ([6]; Dodecanal, 5 μM) [RLU] | mean luminescent intensity (RLuc pDNA) ([6]; Dodecanal, 10 μM) [RLU] | mean luminescent intensity (RLuc pDNA) ([6]; Dodecanal, 15 μM) [RLU] | mean luminescent intensity (RLuc pDNA) ([6]; Myristoleyl, 5 μM) [RLU] | mean luminescent intensity (RLuc pDNA) ([6]; Myristoleyl, 15 μM) [RLU] | mean luminescent intensity (RLuc pDNA) ([6]; Palmitoleyl, 5 μM) [RLU] | also measured
Ac-RRLK*RK*LRRLK*RL-NH2 (Ac-RRLK(NHNH2)RK(NHNH2)LRRLK(NHNH2)RL-NH2; not fully specified; printed as Ac-RRLK*RK*LRRLK*RL-NH2; also: K*4,K*6,K*11: native or modified lysine (ε-amide to a linker)) [13(2 + 1)] | 269506 | 59470 | 78739 | 31561 | 10116 | 2549 | −28 | −36 | 4118 | 3288 | 564 | 379 | 452 | 116466 | 132238 | 6721 | 2207 | 70015 | 1114 | 105588 | mean luminescent intensity (RLuc pDNA) ([2]; Palmitoleyl, 5 μM): 5094 RLU; mean luminescent intensity (RLuc pDNA) ([3]; Dodecanal, 5 μM): 24508 RLU; mean luminescent intensity (RLuc pDNA) ([3]; Dodecanal, 10 μM): 1332 RLU; mean luminescent intensity (RLuc pDNA) ([3]; Myristoleyl, 5 μM): 11594 RLU; mean luminescent intensity (RLuc pDNA) ([3]; Myristoleyl, 10 μM): 2240 RLU; mean luminescent intensity (RLuc pDNA) ([3]; Palmitoleyl, 5 μM): 22640 RLU; mean luminescent intensity (RLuc pDNA) ([3]; Palmitoleyl, 10 μM): 4550 RLU; mean luminescent intensity (RLuc pDNA) ([3]; Petroselinyl, 5 μM): 19295 RLU; mean luminescent intensity (RLuc pDNA) ([3]; Petroselinyl, 15 μM): 2435 RLU; mean luminescent intensity (RLuc pDNA) ([4]; Palmitoleyl, 5 μM): 1206 RLU; mean luminescent intensity (RLuc pDNA) ([5]; Dodecanal, 5 μM): 322366 RLU; mean luminescent intensity (RLuc pDNA) ([5]; Dodecanal, 10 μM): 17040 RLU; mean luminescent intensity (RLuc pDNA) ([5]; Dodecanal, 15 μM): 2698 RLU; mean luminescent intensity (RLuc pDNA) ([5]; Myristoleyl, 5 μM): 418253 RLU; mean luminescent intensity (RLuc pDNA) ([5]; Myristoleyl, 10 μM): 85339 RLU; mean luminescent intensity (RLuc pDNA) ([5]; Myristoleyl, 15 μM): 23239 RLU; mean luminescent intensity (RLuc pDNA) ([5]; Palmitoleyl, 5 μM): 353987 RLU; mean luminescent intensity (RLuc pDNA) ([5]; Palmitoleyl, 10 μM): 97075 RLU; mean luminescent intensity (RLuc pDNA) ([5]; Petroselinyl, 5 μM): 168828 RLU; mean luminescent intensity (RLuc pDNA) ([6]; Petroselinyl, 5 μM): 70216 RLU
Ac-RRK*K*RK*LRRLLRL-NH2 [13(3b)] | 233706 | 33115 | 100988 | 48097 | 4597 | 2571 | 86 | 64 | 5548 | 9759 | 893 | 446 | 338 | 128030 | 101412 | 17841 | 3435 | 34451 | 504 | 65487 | mean luminescent intensity (RLuc pDNA) ([1]; Palmitoleyl, 5 μM): 97665 RLU; mean fluorescence intensity after transfection of EGFP mRNA ([7]; Palmitoleyl, 5 μM): 1176; mean fluorescence intensity after transfection of EGFP mRNA ([7]; Palmitoleyl, 10 μM): −335; mean fluorescence intensity after transfection of EGFP mRNA ([7]; Palmitoleyl, 15 μM): −37; mean fluorescence intensity after transfection of EGFP mRNA ([7]; Petroselinyl, 10 μM): 189; mean luminescent intensity (RLuc pDNA) ([3]; Dodecanal, 15 μM): 2061 RLU; mean luminescent intensity (RLuc pDNA) ([3]; Oleyl, 10 μM): 1493 RLU; mean luminescent intensity (RLuc pDNA) ([3]; Oleyl, 15 μM): 1440 RLU; mean luminescent intensity (RLuc pDNA) ([4]; Petroselinyl, 5 μM): 590 RLU; mean luminescent intensity (RLuc pDNA) ([5]; Oleyl, 10 μM): 4005 RLU; mean luminescent intensity (RLuc pDNA) ([5]; Oleyl, 15 μM): −1204 RLU; mean luminescent intensity (RLuc pDNA) ([6]; Oleyl, 5 μM): 18257 RLU; mean luminescent intensity (RLuc pDNA) ([6]; Petroselinyl, 5 μM): 11255 RLU
